Experimental data: publication doi:10.1101/2020.03.02.973636v3 (biorxiv, 2020)

How the values were obtained:
[1] = biological target: T1, HDAC2 (Homo sapiens, UniProt Q92769); assay: biolayer interferometry, […] global fit; type: binding
[2] = biological target: T2, HDAC8 (Homo sapiens, UniProt Q9BY41); assay: RapidFire mass spectrometry deacetylase assay; type: biochemical
T2 sequence (Q9BY41 1-377): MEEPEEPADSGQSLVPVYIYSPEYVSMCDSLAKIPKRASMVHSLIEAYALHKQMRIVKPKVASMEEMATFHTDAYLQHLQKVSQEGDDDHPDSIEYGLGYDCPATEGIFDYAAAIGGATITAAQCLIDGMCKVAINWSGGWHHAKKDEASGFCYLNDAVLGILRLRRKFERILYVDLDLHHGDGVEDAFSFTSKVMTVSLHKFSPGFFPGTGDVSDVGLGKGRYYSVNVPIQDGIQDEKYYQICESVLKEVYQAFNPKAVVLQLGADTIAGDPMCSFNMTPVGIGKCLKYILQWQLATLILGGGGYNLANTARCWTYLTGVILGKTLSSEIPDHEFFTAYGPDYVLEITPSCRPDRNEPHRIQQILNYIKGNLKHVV

[3] = biological target: T2, HDAC8; assay: biolayer interferometry, […] global fit; type: binding
[4] = biological target: T3, HDAC1 (Homo sapiens, UniProt Q13547); assay: biolayer interferometry, […] global fit; type: binding
T3 sequence (Q13547 whole entry): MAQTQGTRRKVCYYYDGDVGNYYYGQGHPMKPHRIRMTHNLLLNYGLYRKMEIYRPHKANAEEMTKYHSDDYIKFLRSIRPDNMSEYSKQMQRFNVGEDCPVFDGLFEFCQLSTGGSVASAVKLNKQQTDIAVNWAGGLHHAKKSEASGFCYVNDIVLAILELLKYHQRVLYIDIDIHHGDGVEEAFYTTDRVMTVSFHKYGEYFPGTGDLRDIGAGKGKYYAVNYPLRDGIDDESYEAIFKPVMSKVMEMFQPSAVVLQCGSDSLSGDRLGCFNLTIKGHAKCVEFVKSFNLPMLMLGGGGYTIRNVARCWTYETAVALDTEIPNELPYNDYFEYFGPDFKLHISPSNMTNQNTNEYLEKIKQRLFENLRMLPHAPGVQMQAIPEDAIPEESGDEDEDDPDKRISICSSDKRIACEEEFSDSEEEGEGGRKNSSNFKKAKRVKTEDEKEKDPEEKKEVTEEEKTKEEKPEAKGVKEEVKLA

[5] = biological target: T3, HDAC1; assay: biochemical; details: read-out: ka (1/Ms)
[6] = biological target: T1, HDAC2; assay: biochemical; details: read-out: ka (1/Ms)
[7] = biological target: T2, HDAC8; assay: biochemical; details: read-out: ka (1/Ms)
[8] = biological target: T3, HDAC1; assay: biochemical; details: read-out: kdis (1/s)
[9] = biological target: T2, HDAC8; assay: biochemical; details: read-out: kdis (1/s)
[10] = biological target: T1, HDAC2; assay: biochemical; details: read-out: kdis (1/s)
[11] = biological target: T3, HDAC1; assay: biochemical

T1 sequence (Q92769 whole entry): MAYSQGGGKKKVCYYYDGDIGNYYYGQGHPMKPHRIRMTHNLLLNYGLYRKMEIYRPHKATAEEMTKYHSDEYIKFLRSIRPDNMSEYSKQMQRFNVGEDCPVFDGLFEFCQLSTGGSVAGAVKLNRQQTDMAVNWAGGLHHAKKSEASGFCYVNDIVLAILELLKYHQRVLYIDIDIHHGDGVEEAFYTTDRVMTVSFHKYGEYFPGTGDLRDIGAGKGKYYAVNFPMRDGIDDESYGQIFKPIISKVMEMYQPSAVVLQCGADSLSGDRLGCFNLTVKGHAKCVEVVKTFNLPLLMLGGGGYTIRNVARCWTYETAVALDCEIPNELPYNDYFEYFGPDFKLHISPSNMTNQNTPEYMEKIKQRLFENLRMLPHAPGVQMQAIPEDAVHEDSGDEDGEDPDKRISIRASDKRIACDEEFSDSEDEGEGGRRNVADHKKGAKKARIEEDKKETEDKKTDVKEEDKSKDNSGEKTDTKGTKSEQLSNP

O=C(c1cc(O)c(O)c(O)c1)c1ccc(O)c(O)c1O [Exifone, 2,3,3’,4,4’,5’-hexahydroxybenzophenone] showed a Kd [1] of 142.8 ± 1 nM, an EC50 [2] of 270 nM and a Kd [3] of 257.9 ± 1.7 nM. It also gave a Kd [4] of 94.9 ± 0.8 nM, a kon [5] of 15500 M⁻¹ s⁻¹ and a kon [6] of 8740 M⁻¹ s⁻¹. It also gave a kon [7] of 5050 M⁻¹ s⁻¹, a koff [8] of 0.00134 s⁻¹ and a koff [9] of 0.0013 s⁻¹. The koff [10] was 0.00125 s⁻¹ and the EC50 [11] was 160 nM.
